This note sets out measurements from US9221836B2, “Heterocyclic compound and use thereof” (TAKEDA PHARMACEUTICAL COMPANY LIMITED, priority 2008, dated 2015).

Positions count from the first letter of the chain named.

Assay [1] has as its target T1, Human renin (Homo sapiens, UniProt P00797).
T1 sequence (P00797 67-406): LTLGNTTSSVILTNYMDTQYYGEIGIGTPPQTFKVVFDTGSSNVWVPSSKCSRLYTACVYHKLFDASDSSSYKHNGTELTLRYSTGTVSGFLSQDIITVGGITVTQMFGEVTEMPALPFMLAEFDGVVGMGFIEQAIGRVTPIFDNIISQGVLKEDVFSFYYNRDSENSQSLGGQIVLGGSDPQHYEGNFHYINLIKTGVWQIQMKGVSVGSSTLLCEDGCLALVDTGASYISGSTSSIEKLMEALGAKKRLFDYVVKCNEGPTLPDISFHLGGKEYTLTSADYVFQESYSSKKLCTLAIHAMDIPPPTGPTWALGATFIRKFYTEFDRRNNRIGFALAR
Nature of the assay: Human renin inhibition, angiotensin I quantified by EIA. The note with it: read-out: Human renin inhibitory activity: inhibitory activity (%) at 0.1 μM.
Method: (6) Measurement of Renin Inhibition Value
As a substrate for renin activity measurement, the angiotensinogen mentioned in (5) above was used. 1 μl each of the test compound (containing 100% DMSO) was added to each well of a 384-well plate (ABgene). Renin was diluted with a buffer solution for reaction (20 mM sodium phosphate (pH 7.4)) to a concentration of 57 pM, and 14 μl each of the dilution was added to each well. The dilution was left to stand at 37° C. for 10 min, and then 5 μl of each of a 6 μM solution of substrate angiotensinogen was added to each well to initiate the reaction. […] The amount of angiotensin I produced by an enzyme reaction was quantified by Enzyme Immuno Assay (EIA) described below.
Anti-angiotensin I antibody (Peninsula Laboratories Inc.) diluted 5,000-fold with PBS was added to each well of a 384 well black plate (Nalge Nunc International Co., Ltd.) by 25 μl, and left standing overnight at 4° C. to immobilize the antibody in the plate. The antibody solution was removed, PBS solution (100 μl) containing 1% BSA was added to each well, and the mixture was left standing at room temperature for 2 hr for blocking. The blocking solution was removed, and each well was washed 5 times with 100 μl of 0.05% Tween20-PBS. […] Then, a biotinated angiotensin I solution (AnaSpec, 15 μl) prepared to 1.6 nM with a buffer [20 mM tris-hydrochloric acid (pH 7.4), 150 mM sodium chloride, 0.01% BSA, 0.05% Tween20] was added to each well, mixed with a plate mixer and left standing at room temperature for 1 hr. The solutions were removed from each well, and each well was washed 5 times with 100 μl of 0.05% Tween20-PBS. Horseradish peroxydase Streptavidin (PIERCE Biotecnology inc., 25 μl) diluted to 100 ng/ml with a buffer [20 mM tris-hydrochloric acid (pH 7.4), 150 mM sodium chloride, 0.1% BSA, 0.05% Tween 20] was added to each well and the mixture was left standing at room temperature for 30 min. The solutions were removed from each well, and each well was washed 5 times with 100 μl of 0.05% Tween20-PBS. SuperSignal ELISA femto Maximum Sensitivity Substrate (PIERCE Biotecnology Inc.) was added by 25 μl and luminescence intensity was measured by EnVision (Perkin Elmer Inc.). An analytical curve was drawn from the luminescence intensity of wells containing an angiotensin I standard solution, and the amount of angiotensin I produced by an enzyme reaction was calculated and used as an index of renin activity.

In assay [2] the target is T2, plasma renin activity (PRA) (Macaca fascicularis, UniProt Q6DLS0).
T2 sequence (Q6DLS0 67-406): T1 sequence (P00797 67-406) with T2A, I148L, S169A
As to conditions: male Macaca fascicularis; 1 mg/kg orally in 0.5% methylcellulose; plasma 4 hr after administration; amended with vehicle group.
Method: Male macaca fascicularis was used. The blood samples were collected from femoral vein at the time points of before drug administration and 4 hr after drug administration (EDTA-2Na^+ at final concentration of 7.5 mmol/L was used as an anticoagulant). […] The drug was dissolved in 0.5% methylcellulose and orally administered at 1 mg/kg. […] PRA was calculated by the following formula.
X37° C.: angiotensin I concentration for incubation at 37° C.
X4° C.: angiotensin I concentration for incubation at 4° C.
PRA at each time point after drug administration was calculated as percentage relative to the value before administration and taken as PRA %. The renin inhibitory activity of the drug administration group was calculated as an inhibitory rate by amending the PRA % at each time point after drug administration with PRA % of the vehicle group.

On to `CC[C@@H](O)[C@H]1CNC[C@@H](N(CC(C)C)C(=O)c2nc3ccccc3n2CCCCOC)C1.Cl.Cl` [Example 75-2, N-{(3S,5R)-5-[(1R)-1-hydroxypropyl]piperidin-3-yl}-1-(4-methoxybutyl)-N-(2-methylpropyl)-1H-benzimidazole-2-carboxamide dihydrochloride], for which the inhibition at 0.1 µM in assay [1] turned out to be 90%. Besides, in assay [2], the “Macaca fascicularis plasma renin activity: PPA inhibitory activity (%, n = 3-7)” value is 71%.
